According to patent US6903104B2, “Indol-3-YL-2-oxoacetamide compounds and methods of use thereof” (National Health Research Institutes, priority 2001, dated 2005):

Experiments:
[1] = tested on: hepatocellular HA-22T cancer cells; test: In vitro cytotoxicity MTS assay, hepatocellular HA-22T; type: cell-based, human; conditions: 72 hours
Procedure: (§1) A panel of human cancer cells, gastric NUGC3 and HR, nasopharyngeal HONE1, hepatocellular HEP G2 and HA-22T, colorectal DLD1, lung A549, prostate PC3, breast MCF7 and its adriamycin-resistant MCF7/ADR subline, uterus MES-SA and its adriamycin-resistant MES-SA/Dx5 subline, is purchased from Food Industry Research and Development Institute, Hsinchu, Taiwan R.O.C. or American Type Culture Collection, Manassas, Va. U.S.A., are used in in vitro cytotoxicity assays. The human cells are seeded at a cell density of 3000 or 4500 cells/100 μl/well in 96-well flat-bottom plates and incubated for 24 hours at 37° C. in a 5% CO2 incubator. The testing compounds are dissolved in dimethyl sulfoxide (DMSO) and further diluted into the culture medium for treatments of human cancer cells in vitro. The drug-containing media has a final DMSO concentration of ≦0.3%. The compounds of this invention are prepared in culture media for testing at a range of concentrations from 10, 1, 0.1, 0.01 to 0.001 μM. Each compound solution is (200 μl/well in duplicate) in the cell plates and is treated for 72 hours at 37° C., 5% CO2 in an incubator. Actinomycin D at 5 μM and 0.3% DMSO are used as the positive and vehicle controls, respectively. A colorimetric assay using 3-(4,5-dimethylthiazol-2-yl)-5-(3-carboxymethoxyphenyl)-2-(4-sulfophenyl)-2H-tetrazolium (MTS) and phenazine methosulfate (PMS) is used to determine the potency of the compounds. This assay measures cell viability based on the cellular activity in conversion of a tetrazolium salt into a colored soluble formazan product. The optical density (OD) values are measured at 490 nm with a 1420 multilabel counter VICTOR® from Wallac, Turku, Finland. All of the measured values are subtracted with that of the blank control wells without cells before further calculations. The efficacy data are expressed as a percentage normalized to the vehicle controls as calculated in the following formulae. Inhibitory potency (% of vehicle control)=[(OD490compound−OD490blank)/(OD490vehicle−OD490blank)]×100%. The concentration (IC50) of a test compound that inhibits 50% of the cellular activity is determined.

[2] = tested on: breast MCF7 cancer cells; test: In vitro cytotoxicity MTS assay, breast MCF7; type: cell-based, human; conditions: 72 hours
Procedure: as §1

[3] = tested on: gastric NUGC3 cancer cells; test: In vitro cytotoxicity MTS assay, gastric NUGC3; type: cell-based, human; conditions: 72 hours
Procedure: as §1

[4] = tested on: colorectal DLD1 cancer cells; test: In vitro cytotoxicity MTS assay, colorectal DLD1; type: cell-based, human; conditions: 72 hours
Procedure: as §1

[5] = tested on: gastric HR cancer cells; test: In vitro cytotoxicity MTS assay, gastric HR; type: cell-based, human; conditions: 72 hours
Procedure: as §1

[6] = tested on: hepatocellular HEP G2 cancer cells; test: In vitro cytotoxicity MTS assay, hepatocellular HEP G2; type: cell-based, human; conditions: 72 hours
Procedure: as §1

[7] = tested on: nasopharyngeal HONE1 cancer cells; test: In vitro cytotoxicity MTS assay, nasopharyngeal HONE1; type: cell-based, human; conditions: 72 hours
Procedure: as §1

[8] = tested on: adriamycin-resistant MCF7/ADR subline; test: In vitro cytotoxicity MTS assay, adriamycin-resistant MCF7/ADR; type: cell-based, human; conditions: 72 hours
Procedure: as §1

[9] = tested on: murine leukemic P388 cells; test: In vivo anticancer activity, murine leukemic P388 model; design: species or system DBA/2J mice; conditions: for increase of life span: P.O., daily, 4×
Procedure: The in vivo anticancer activities of the compounds are evaluated by the following murine leukemic P388 model. Inbred female DBA/2J mice of 4-5 week-old were purchased from the Charles River Laboratories Inc., Wilmington, Mass., USA and the National Laboratory Animals Breeding and Research Center, Taipei, Taiwan, ROC. Murine leukemic P388 cells are purchased from the Japanese Collection of Research Bioresources, Japan. P388 cells are cultured and propagated in RPMI1640 medium supplemented with 50 μM 2-mercaptoethanol and 10% fetal bovine serum. Mice at the age of 6 weeks were grouped as the treatment, negative control and positive control groups at 7 to 8 mice per group. All mice are intravenously inoculated with the P388 cells at one million per mouse one day before the treatments initiated. Compounds of this invention are dissolved in dimethyl sulfoxide (DMSO) and then diluted in 0.5% carboxymethyl cellulose with the final concentration of DMSO less than 0.5%. Different treatment groups are orally given (P.O.), respectively, with compounds of different doses for a pharmacological dose-response relationship. Mice of the negative control group are treated with the dosing vehicle, 0.5% carboxymethyl cellulose. Doxorubicin of the maximal tolerated dose, 10 mg/kg, is given intravenously as an experimental positive control. The cancer cell-inoculated animals are monitored twice daily. The time on which 50% of the P388-inoculated mice is still surviving is defined as the medium survival time and is used to calculate the percentage (normalized to the medium survival time of the control group) of increased in life span after treatment, which is then served as the index of treatment response.

[10] = tested on: rat aorta endothelial cells; test: Rat aorta tube formation assay (angiogenesis inhibition); type: cell-based, Spraque-Dawley rats; design: key: Noninhibitors are indicated by the symbol (−), meaning that the extent of endothelial cell growth is essentially at the same level as that of the control; The most potent inhibitors receive a score of (+++++), indicating essentially no measurable endothelial cell growth; conditions: 5 days
Procedure: The procedures are modified from previous reports (Burbridge and West 2001; Bauer et al. 2000; Nicosai and Ottinetti 1990a) and described as follows. Male Spraque-Dawley rats of 6-8 weeks old are purchased from the National Laboratory Animal Breeding and Research Center (Taipei, Taiwan). The animals are anesthetized with urethane (2 g/kg, intraperitoneal) and the thoracic aortas are quickly harvested in a laminar flow hood. The aortas are rinsed with ice-cold normal saline with 10 μg/ml gentamicin and the attached fibroadipose tissues are removed using micro-dissection scissors. The aortas are cross-sectioned into rings of 1 mm in thickness. A mixture of Matrigel®, purchased from BD Biosciences, solution and the EBM-II medium, purchased from BioWhittaker Inc., (1:1) with 2% FBS, 0.25 mg/ml, amphotericin B and 10 μg/ml gentamicin is prepared and added at 100 μl to each well of a 48-well plate. The mixture is allowed to gel at 37° C. Aorta rings are then placed onto the gelled matrix and embedded in an additional 150 μl per well of the mixture solution and allowed to gel at 37° C. The aorta rings are then covered with 125 μl of the EGM-II medium and incubated overnight in humidified incubator with 5% CO2/95% air at 37° C. After removal of the EGM-II from the established aorta cultures, the compound-containing media are applied at 300 μl per well to the cultures and then incubated in 5% CO2/95% air at 37° C. for 5 days. The cultures are then subject to the 3-[4,5-dimethylthiazol-2-yl]-2,5 diphenyl-2H-tetrazolium bromide (MTT) or 3-(4,5-dimethylthiazol-2-yl)-5-(3-carbomethoxyphenyl)-2H-tetrazolium (MTS) assay and OD490 nm values measured. The testing compounds are dissolved in dimethyl sulfoxide (DMSO) and prepared in EBM-II media with at a final concentration of DMSO less than 0.1%.
The capillary-like, tube structure of the outgrown rat aorta endothelial cells is easily visualized by MTT staining. The medium on top of the matrix is removed from the established aorta ring cultures. MTT solution of 5 mg/ml in saline is added to the cultures at 100 μl/well and the cultures are incubated in a CO2 incubator at 37° C. for 24 hr. The stained cultures are then examined under a microscope DMIRB from Leica and photos taken with a digital camera.
Inhibition activity is also assessed in the following manner. The reductive reaction of MTS initiated by the viable cellular mitochondrial activity is used as a basis for the measurement of cell viability (Cory et al. 1991; Gieni et al. 1995). To the rat aorta ring cultures 300 μl of a solution containing 100 μg MTS and 1 μg, phenazine methosulfate is added per well and incubated in 5% CO2/95% air at 37° C. for 24 hr. During the incubation, MTS is converted to formazan product. At the end of incubation, the solution overlaying the gel is well-mixed and 100 μl aliquots are transferred into a 96-well plate for measurement of OD490 nm with a spectrophotometer VICTOR™-II from Wallac Oy.
The compounds listed in Table 3 are screened for angiogenesis inhibition. The control compound, ASTA, is D-24851, N-[pyridin-4-yl]-[1-(4-chlorobenzyl)-indol-3-yl]-glyoxylic acid amide. Noninhibitors are indicated by the symbol (−), meaning that the extent of endothelial cell growth is essentially at the same level as that of the control.

| Structure (SMILES) | IC50 [1] [µM] | IC50 [2] [µM] | IC50 [3] [µM] | IC50 [4] [µM] | IC50 [5] [µM] | IC50 [6] [µM] | IC50 [7] [µM] | IC50 [8] [µM] | increased of life span ([9]; maximal tolerated dose, 10 mg/kg, intravenously, mean±sd) [%] | Inhibition Score ([10]; final conc. 0.3 μg/ml) | increase of life span ([9]; 25 mg/kg, P388-inoculated mice) [%] | increase of life span ([9]; 50 mg/kg, P388-inoculated mice) [%] | increase of life span ([9]; 100 mg/kg, P388-inoculated mice) [%] | increase of life span ([9]; 150 mg/kg, P388-inoculated mice) [%] | increase of life span ([9]; 200 mg/kg, P388-inoculated mice) [%] | increase of life span ([9]; 400 mg/kg, P388-inoculated mice) [%] | activity in the increase of life span (dose-response) ([9]; oral, P388-inoculated mice) | Inhibition Score ([10]; final conc. 1 μg/ml) |
| --- | --- | --- | --- | --- | --- | --- | --- | --- | --- | --- | --- | --- | --- | --- | --- | --- | --- | --- |
| N#Cc1ccc(Cn2cc(C(=O)C(=O)NCCCCCCOc3ccc(Cl)cc3)c3ccccc32)cc1 [Compound 43] | 0.2 | 0.856 | 0.134 | 0.534 | 0.291 | 0.713 | 0.031 | 0.412 |  |  |  |  |  |  |  |  |  |  |
| COc1cccc2c1C(=O)c1c(O)c3c(c(O)c1C2=O)C[C@@](O)(C(=O)CO)C[C@@H]3O[C@H]1C[C@H](N)[C@H](O)[C@H](C)O1 [doxorubicin, reference compound] |  |  |  |  |  |  |  |  | 119±18 |  |  |  |  |  |  |  |  |  |
| Cc1cc(NC(=O)C(=O)c2cn(Cc3ccc(C#N)cc3)c3ccc(Br)cc23)sn1 [Compound 24] | 2.84 | 7.65 | 1.72 | 5.8 | 5.46 | 3.59 | 0.401 | 2.55 |  | − |  |  |  |  |  |  |  |  |
| O=C(Nc1ccc2ncccc2c1)C(=O)c1cn(Cc2ccco2)c2ccccc12 [Compound 42] | 0.345 | 0.928 | 0.634 | 0.799 | 0.453 | 3.98 | 0.296 | 0.527 |  | +++++ |  |  |  |  |  |  |  |  |
| Cc1cc(Cn2cc(C(=O)C(=O)Nc3ccc4ncccc4c3)c3ccccc32)on1 [Compound 59] | 0.115 | 0.678 | 0.262 | 0.658 | 0.294 | 0.613 | 0.034 | 0.3 |  | +++++ |  |  |  |  |  |  |  |  |
| O=C(Nc1ccc2ncccc2c1)C(=O)c1cn(Cc2ccsc2)c2ccccc12 [Compound 48] | 0.303 | 0.915 | 0.206 | 1.43 | 0.552 | 4.13 | 0.217 | 0.371 |  |  | 25 | 60 | 25 | 68 ± 25 | 63 | 229 | dose-dependent activity |  |
| N#Cc1ccc(Cn2cc(C(=O)C(=O)Nc3ccc(I)cc3)c3ccccc32)cc1 [Compound 13] | 0.356 | 0.577 | 0.431 | 0.846 | 0.396 | 6.31 | 0.098 | 0.597 |  | +++++ |  |  |  |  |  |  |  |  |
| Cc1cc(Cn2cc(C(=O)C(=O)Nc3ccc(Br)cc3)c3ccccc32)on1 [Compound 62] | 0.148 | 0.872 | 0.137 | 0.651 | 0.3 | 6.81 | 0.042 | 0.509 |  |  |  |  |  |  |  |  |  |  |
| Cc1cc(NC(=O)C(=O)c2cn(Cc3cccs3)c3ccccc23)sn1 [Compound 44] |  |  |  |  |  |  |  |  |  |  |  |  |  |  |  |  |  | +++++ |
| O=C(Nc1ccc2ncccc2c1)C(=O)c1cn(Cc2cscn2)c2ccccc12 [Compound 77] | 0.469 | 1.32 | 0.458 | 1.5 | 0.721 | > 10 | 0.38 | 0.595 |  | +++++ |  |  |  |  |  |  |  |  |
| N#Cc1ccc(Cn2cc(C(=O)C(=O)Nc3cc(-c4ccc(Cl)cc4)no3)c3ccccc32)cc1 [Compound 30] | 0.558 | 0.92 | 0.639 | 0.926 | 0.739 | 0.953 | 0.332 | 0.847 |  |  |  |  |  |  |  |  |  |  |
| Cc1cc(NC(=O)C(=O)c2cn(Cc3cc(C(C)C)no3)c3ccccc23)sn1 [Compound 65] | 0.302 | 0.7 | 0.242 | 0.609 | 0.324 | 0.72 | 0.05 | 0.71 |  | +++++ |  |  |  |  |  |  |  |  |
| COc1ccc(NC(=O)C(=O)c2cn(Cc3ccccc3C#N)c3ccccc23)cc1 [Compound 32] | 1.91 | 5.18 | 4.85 | 5.65 | 2.25 | 4.77 | 0.928 | 5.29 |  | +++++ |  |  |  |  |  |  |  |  |
| COc1ccc(NC(=O)C(=O)c2cn(Cc3ccsc3)c3ccccc23)cc1 [Compound 50] | 0.046 | 0.171 | 0.037 | 0.734 | 0.128 | 1.32 | 0.038 | 0.406 |  |  |  |  |  |  |  |  |  |  |
